From PubChem BioAssay (NCI) come the findings set out here.

Experiment in all cases: NCI-60 cell line screen, 48 h
The subject of experiment [1] is 786-0 renal.
Experiment [2] concerns CAKI-1 renal.
The subject of experiment [3] is CCRF-CEM leukemia.
Experiment [4] has as its system HCC-2998 colon.
Experiment [5] deals with HCT-116 colon.
Experiment [6] relates to HOP-92 NSCLC.
In experiment [7] the test system is IGROV1 ovarian.
The subject of experiment [8] is MDA-MB-231 breast.
The test system of experiment [9] is MDA-N.
Experiment [10] relates to NCI-H23 lung.
Experiment [11] has as its system NCI-H522 lung.
Experiment [12] has as its system NCI/ADR-RES ovarian.
Experiment [13] has as its system SF-268 CNS.
Experiment [14] has as its system SNB-19 CNS.
In experiment [15] the test system is UACC-257 melanoma.
The subject of experiment [16] is UACC-62 melanoma.
The subject of experiment [17] is UO-31 renal.
Experiment [18] relates to HT29 colon.
Experiment [19] concerns SK-MEL-5 melanoma.
The test system of experiment [20] is RPMI-8226 leukemia.

Each structure is given as a SMILES string.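 Dose response: 5 concentrations. Exposure: 48 h. Format: 96-well plates. Endpoint: linear interpolation; highest concentration if not reached. TGI denotes the concentration required for complete inhibition of growth.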

In the case of `Nc1nc(N)nc(-c2cnc3ccccc3c2)n1`, the TGI was > 100 µM in [1]; > 100 µM in experiment [2]; 65.9 µM in experiment [3]; > 100 µM in experiment [4]; > 100 µM in experiment [5]; > 100 µM in experiment [6]. Also, the TGI in experiment [7], in experiment [8], in experiment [9], in experiment [10], in experiment [11] and in experiment [12] was > 100 µM throughout. The TGI in experiment [13], in experiment [14], in experiment [15], in [16] and in experiment [17] was > 100 µM in each case.

Regarding `O=C(c1ccsc1)c1cc2c(s1)C(=O)c1ccsc1C2=O`, the TGI was 0.356 µM in experiment [1]; 1.57 µM in experiment [2]; > 100 µM in [3]; 1.56 µM in experiment [4]; 0.468 µM in experiment [5]; 1.25 µM in experiment [6]. Also, the TGI in experiment [18] amounted to 4.08 µM; in experiment [7], 0.403 µM; in experiment [8], 0.496 µM; in [9] it was 0.0512 µM; in experiment [10], 0.308 µM; in [11] it was 0.323 µM. Besides, the TGI in [12] stood at 0.407 µM; in experiment [13], 0.405 µM; in experiment [19], 0.104 µM; in experiment [14] it was 0.354 µM; in experiment [15], 0.324 µM; in experiment [16], 0.385 µM. Besides, the TGI in experiment [17] is 0.25 µM.

For `CCOP(=O)(OCC)/C(=C/c1ccccc1)CC(C)=O`, the TGI in experiment [1], in experiment [2], in experiment [3], in [4], in experiment [5] and in experiment [6] was > 100 µM throughout. The TGI in experiment [18], in [7], in experiment [8], in [9], in [10] and in [12] was > 100 µM each time. Also, the TGI in experiment [13], in experiment [19], in experiment [14], in [15], in experiment [16] and in [17] was > 100 µM throughout.

Take `CN(C)c1ccc(/C=C2\C[C@H]3[C@@H]4CCC5=CC(=O)CC[C@]5(C)[C@H]4CC[C@]3(C)C2=O)cc1`: the TGI in experiment [1] is > 100 µM; in experiment [2] it was > 100 µM; in experiment [5], > 100 µM; in [6] it was 66.1 µM; in experiment [18], > 100 µM; in experiment [7], > 100 µM. The TGI in experiment [8], in experiment [9], in [10], in [12], in experiment [20] and in experiment [13] was > 100 µM in each case. For the same molecule, the TGI in [19] was 32.3 µM; in [14], > 100 µM; in [15] it was 67.3 µM; in experiment [16], > 100 µM; in experiment [17], > 100 µM.

Take `O=[N+]([O-])c1nccn1CCCN=c1c2ccccc2n(O)c2ccccc12`: the TGI in experiment [1], in experiment [2], in experiment [3], in experiment [5], in experiment [6] and in experiment [18] was > 100 µM throughout. Besides, the TGI in experiment [7], in experiment [8], in experiment [9], in experiment [10], in [11] and in experiment [12] was > 100 µM in each case. Moreover, the TGI in experiment [20], in experiment [13], in [19], in [15], in experiment [16] and in [17] was > 100 µM each time.

For `Nc1ccc(S(=O)(=O)Nc2nc3ccccc3nc2Nc2ccc(S(N)(=O)=O)cc2)cc1`, the TGI in experiment [1], in experiment [2], in [3], in experiment [5], in experiment [6] and in experiment [18] was > 100 µM each time. For the same molecule, the TGI was > 100 µM in [7]; > 100 µM in experiment [8]; > 100 µM in experiment [9]; 48 µM in [10]; 96.6 µM in experiment [11]; > 100 µM in experiment [12]. For the same molecule, the TGI in [20] is > 100 µM; in experiment [13] it was 60.7 µM; in experiment [19] it was > 100 µM; in [14], > 100 µM; in [15], > 100 µM; in experiment [16], > 100 µM. The TGI in experiment [17] turned out to be 56.2 µM.

Consider `C/C(=N\N=C(\N)OB(F)F)c1ccccn1`, for which the TGI was > 100 µM in [1]; > 100 µM in experiment [2]; 73.1 µM in [3]; > 100 µM in experiment [4]; > 100 µM in experiment [5]; 85.7 µM in experiment [6]. Also, the TGI in [18], in [7], in experiment [8], in experiment [9], in experiment [10] and in [11] was > 100 µM in each case. Also, the TGI in [12], in experiment [13], in experiment [19], in experiment [14], in experiment [15] and in experiment [16] was > 100 µM in each case. Besides, the TGI in [17] is > 100 µM.

`CC(C)Cc1ccc(C(C)/C=C2\CCC(CN3CCOCC3)C2=O)cc1` (centres undefined): the TGI was found to be 3.21 µM in experiment [1]; 33.5 µM in experiment [2]; 17.8 µM in [3]; 24.1 µM in experiment [4]; 18.7 µM in [5]; 39.7 µM in experiment [6]. Further, the TGI in experiment [18] stood at 16.7 µM; in [7] it was 19.8 µM; in experiment [8], 4.2 µM; in experiment [9], 24.7 µM; in experiment [10], 29.4 µM; in experiment [11] it was 15.4 µM. The TGI in experiment [12] amounted to 29.3 µM; in experiment [13], 15.9 µM; in [19], 24.3 µM; in experiment [14], 21.4 µM; in experiment [15], 14.7 µM; in experiment [16], 25.6 µM. This molecule also showed a TGI in experiment [17] of 21.8 µM.

In the case of `COc1cccc(N=N/C(=N/NC(=O)c2cc(Cl)ccc2O)c2ccc(N(CCC#N)CCC#N)cc2C)c1`, the TGI is > 100 µM in experiment [1]; > 100 µM in experiment [2]; > 100 µM in [3]; 92 µM in experiment [4]; > 100 µM in [5]; > 100 µM in experiment [18]. Further, the TGI was > 100 µM in experiment [7]; > 100 µM in experiment [8]; > 100 µM in experiment [9]; > 100 µM in [10]; 31.9 µM in experiment [11]; > 100 µM in experiment [12]. Besides, the TGI in experiment [20] was > 100 µM; in experiment [13], > 100 µM; in experiment [19] it was > 100 µM; in experiment [14], > 100 µM; in experiment [15] it was 59.5 µM; in experiment [16], > 100 µM. In experiment [17], the TGI was > 100 µM.

On to `CSc1nc(C)cc(N(C)c2ccccc2)n1`, for which the TGI was > 100 µM in experiment [1]; > 100 µM in experiment [2]; > 100 µM in experiment [3]; > 100 µM in experiment [4]; > 100 µM in [5]; 49.5 µM in experiment [18]. Further, the TGI is > 100 µM in experiment [7]; 87.3 µM in experiment [8]; 61.3 µM in experiment [9]; 95.3 µM in [10]; > 100 µM in experiment [11]; 63.6 µM in [12]. The TGI in experiment [20] was > 100 µM; in [13] it was > 100 µM; in experiment [19], 56.2 µM; in experiment [14], > 100 µM; in [15], 84 µM; in experiment [16], > 100 µM. Also, the TGI in [17] was > 100 µM.

Consider `COc1cc(O)c2c(=O)c3ccccc3n(C)c2c1`, for which the TGI in [1], in experiment [2], in [3], in experiment [4], in [5] and in experiment [6] was > 100 µM each time. The TGI in experiment [18], in [7], in experiment [8], in experiment [9], in [10] and in [11] was > 100 µM throughout. For the same molecule, the TGI in experiment [12], in experiment [13], in [19], in experiment [15], in experiment [16] and in [17] was > 100 µM in each case.

Regarding `CC(=O)Oc1ccn2nc(C)c(Cc3c(C)nn4ccc(OC(C)=O)cc34)c2c1`, the TGI in [1] is > 100 µM; in experiment [2], > 100 µM; in [3] it was 76.6 µM; in experiment [5], > 100 µM; in experiment [6], > 100 µM; in experiment [18] it was > 100 µM. Further, the TGI in experiment [7] is > 100 µM; in experiment [8] it was > 100 µM; in experiment [9], > 10 µM; in experiment [10], > 100 µM; in experiment [11], > 100 µM; in experiment [12] it was > 100 µM. The TGI in experiment [13], in experiment [19], in [14], in experiment [15] and in experiment [16] was > 100 µM each time.
